Format in all cases: functional
The subject of experiment [1] is Escherichia coli. In words: Compound was tested for in vitro antibacterial activity against Escherichia coli 1850E.
The subject of experiment [2] is Streptococcus pneumoniae. In words: Compound was tested for in vitro antibacterial activity against Streptococcus pneumoniae 3512.
Experiment [3] concerns Enterococcus faecalis. In words: Compound was tested for in vitro antibacterial activity against […] faecalis 850.
The subject of experiment [4] is Clostridium perfringens. In words: Compound was tested for in vitro antibacterial activity against Clostridium perfringens 615E.
Experiment [5] relates to Staphylococcus aureus. In words: Compound was tested for in vitro antibacterial activity against Staphylococcus aureus 853E penicillinase (PCI) producing strain.
The test system of experiment [6] is Pseudomonas aeruginosa. In words: Compound was tested for in vitro antibacterial activity against Pseudomonas aeruginosa 1911.
In experiment [7] the test system is Bacteroides fragilis. In words: Compound was tested for in vitro antibacterial activity against Bacteroides fragilis 2017.
In experiment [8] the test system is Escherichia coli. In words: Compound was tested for in vitro antibacterial activity against Escherichia coli 1919 a beta-lactamase producing strain(TEM 1) with permeable outer membrane.

Converted amounts (≈) assume the structure as drawn. Where only a bound is given, the exact number is not on record here.

As usually defined, the MIC is the lowest concentration that inhibits growth of the organism. Higher therefore signals a less susceptible organism.

For the compound `C[C@@H](O)[C@H]1C(=O)N2C(C(=O)[O-])=C3[C@@H](OCCF)CCC[C@@H]3[C@H]12.[K+]`, the MIC was 4 µg/mL in experiment [1]; 0.03 µg/mL in experiment [2]; 4 µg/mL in experiment [3]; at most 0.01 µg/mL in experiment [4]; 0.2 µg/mL in experiment [5]; above 32 µg/mL in experiment [6]. Also, the MIC in experiment [7] is 0.2 µg/mL; in experiment [8] it was 0.5 µg/mL.

For `C[C@@H](O)[C@H]1C(=O)N2C(C(=O)[O-])=C3[C@@H](OCCO)CCC[C@@H]3[C@H]12.[K+]`, the MIC in experiment [1] was 0.5 µg/mL; in experiment [2] it was 0.1 µg/mL; in experiment [3] it was 8 µg/mL; in experiment [4], 0.06 µg/mL; in experiment [5], 0.5 µg/mL; in experiment [6], above 32 µg/mL. Moreover, the MIC worked out at 0.1 µg/mL in experiment [7] and 0.5 µg/mL in experiment [8].

In the case of `C[C@@H](O)[C@H]1C(=O)N2C(C(=O)[O-])=C3[C@@H](OCCC#N)CCC[C@@H]3[C@H]12.[K+]`, the MIC was 4 µg/mL in experiment [1]; 0.06 µg/mL in experiment [2]; 2 µg/mL in experiment [3]; 0.03 µg/mL in experiment [4]; 0.5 µg/mL in experiment [5]; above 32 µg/mL in experiment [6]. Further, the MIC turned out to be 0.2 µg/mL in experiment [7] and 1 µg/mL in experiment [8].

Regarding `C[C@@H](O)[C@H]1C(=O)N2C(C(=O)O)=C(SCCNC=N)C[C@H]12` [IMIPENEM ANHYDROUS], the MIC is 0.5 µg/mL (≈ 1.67 µM) in experiment [1]; below 0.01 µg/mL in experiment [2]; 2 µg/mL (≈ 6.68 µM) in experiment [3]; 0.03 µg/mL (≈ 0.1 µM) in experiment [4]; 0.1 µg/mL (≈ 0.334 µM) in experiment [5]; 4 µg/mL (≈ 13.4 µM) in experiment [6]. Also, the MIC in experiment [7] is 0.06 µg/mL (≈ 0.2 µM); in experiment [8] it was 0.5 µg/mL (≈ 1.67 µM).

For `CO[C@H]1CCC[C@H]2C1=C(C(=O)[O-])N1C(=O)[C@H]([C@@H](C)O)[C@@H]21.[Na+]` [SANFETRINEM SODIUM], the MIC in experiment [1] is 0.5 µg/mL; in experiment [2], at most 0.01 µg/mL; in experiment [3], 1 µg/mL; in experiment [4], 0.03 µg/mL; in experiment [5], 0.2 µg/mL; in experiment [6], above 32 µg/mL. Also, the MIC in experiment [7] is 0.06 µg/mL; in experiment [8], 0.5 µg/mL.

As for `COCCO[C@H]1CCC[C@H]2C1=C(C(=O)[O-])N1C(=O)[C@H]([C@@H](C)O)[C@@H]21.[K+]`, the MIC is 2 µg/mL in experiment [1]; 0.2 µg/mL in experiment [2]; 2 µg/mL in experiment [3]; 0.03 µg/mL in experiment [4]; 0.5 µg/mL in experiment [5]; above 32 µg/mL in experiment [6]. Also, the minimal inhibitory concentration (MIC) worked out at 0.1 µg/mL in experiment [7] and 0.5 µg/mL in experiment [8].

In the case of `COCCO[C@H]1CCC[C@@H]2C1=C(C(=O)[O-])N1C(=O)[C@H]([C@@H](C)O)[C@@H]21.[K+]`, the MIC was above 32 µg/mL in experiment [1]; 8 µg/mL in experiment [2]; above 32 µg/mL in experiment [3]; above 32 µg/mL in experiment [4]; 8 µg/mL in experiment [5]; above 32 µg/mL in experiment [6]. In addition, the MIC in experiment [7] and in experiment [8] was 32 µg/mL in each case.

The record behind these values is ChEMBL document CHEMBL1129148, “Synthesis and biological evaluation of 4-alkoxy substituted trinems. Part I” (1996).
